Test results taken from paper PMC9424819, “Evaluation of commonly used cardiovascular drugs in inhibiting vonoprazan metabolism in vitro and in vivo” (Frontiers in Pharmacology, 2022).
Counter-ions that a name gives are not always drawn. Like-named read-outs stand apart in the source and are kept apart here.

Key:
[1] = system: vonoprazan metabolism (MI formation) in rat liver microsomes; test: Inhibition of vonoprazan metabolism (MI formation) in rat liver microsome incubation; assay type: in vitro ADME; conditions: rat, rat liver microsomes, pH 7.4, probe vonoprazan (10 µM), metabolite MI measured; RLMs, 10 µM vonoprazan, MI formation
Experimental: (§1) Eleven common-used cardiovascular drugs were chosen to detect their possible inhibition effect on vonoprazan. […] After preincubation at 37°C for 5 min in a shaking water bath, 20 mM NADPH was added to initiate the reaction, which lasted 30 min and was stopped with […] of acetonitrile. The mixture was vortexed after adding 20 µL of diazepam and then centrifugated at 13,000 rpm for 5 min. A 2 µL aliquot of the final supernatant was injected into the UPLC–MS/MS system for analysis. The relative inhibition was calculated according to the relative MI decrease compared to the control (vonoprazan naturally metabolized in RLMs). […] The same procedures were performed. Then, an inhibition mechanism experiment was conducted for further exploration. […] Both inhibitor and substrate were added to the incubation system described above. Every concentration match had three parallels. The MI concentration was detected using the same conditions to depict the Lineweaver–Burk and Dixon plots.
(§2) The concentrations of vonoprazan and MI that were detected by UPLC-MS/MS were applied to GraphPad 7.0 (GraphPad Software Inc., United States) to calculate IC50 and depict plasma concentration-time curves and Lineweaver–Burk and Dixon plots. The pharmacokinetic parameters of the compartment analysis were calculated using DAS (version 3.2.8; The People’s Hospital of Lishui) and expressed as mean ± standard deviation. The t-test was carried out by SPSS 25.0 (SPSS Inc., United States) to compare those parameters. p value < 0.05 was considered statistically significant.

[2] = system: vonoprazan metabolism in rat liver microsomes (RLMs); test: as above; assay type: in vitro ADME
Experimental: as §1, §2

[3] = system: vonoprazan metabolism (MI formation) in human liver microsomes; test: in vitro; conditions: pH 7.4
[4] = Pharmacokinetics of vonoprazan and MI in rats with or without inhibitor pretreatment; assay type: in vivo, Sprague-Dawley rats; conditions: for AUC(0-inf) / AUC(0-t) / Cmax / Tmax / CL/F / MRT last / MRT inf / Vd/F / half-life: male, Sprague-Dawley, rat, plasma, po, 2 mg/kg; for CL/F: read-out: CLz/F (converted); for MRT last: read-out: MRT(0-t); for MRT inf: read-out: MRT(0-∞); for Vd/F: read-out: Vz/F; for half-life: read-out: t1/2z (converted)
Experimental: The Experimental Animal Research Center of Wenzhou Medical University provided specific pathogen-free (SPF) Sprague-Dawley rats (male, 350 ± 20 g, 3 months old). This research was conducted following the principles of the Basel Declaration. […] After one week of rearing in the new environment and fasting overnight, the drug could be gavaged.
Rats were randomly divided into three groups (n = 6). […] After 7 days, on the seventh day, all groups had gavage at a single dosage of 2 mg/kg vonoprazan.
Centrifugation at 4,000 rpm for 10 min was performed to obtain 100 µL of plasma, to which was added 200 µL of acetonitrile and 20 µL of diazepam IS. After vortex mixing and centrifugation at 13,000 rpm for 5 min, 5 µL of supernatant was obtained for analysis by UPLC-MS/MS.
as §2

[5] = amlodipine-pretreated group vs control group, rats
[6] = Amlodipine group (10 mg/kg amlodipine 7 days), single gavage 2 mg/kg vonoprazan, rat plasma
[7] = Control group (CMC-Na 7 days), single gavage 2 mg/kg vonoprazan, rat plasma

| increase of AUC [4, 5] | AUC(0-inf) [4, 6] [ng·h/mL] | AUC(0-t) [4, 6] [ng·h/mL] | Cmax [4, 6] [ng/mL] | Tmax [4, 6] [h] | CL/F [4, 6] [mL/min/kg] | MRT last [4, 6] [h] | Vd/F [4, 6] [L/kg] | half-life [4, 6] [min] | AUC(0-inf) [4, 7] [ng·h/mL] | AUC(0-t) [4, 7] [ng·h/mL] | Cmax [4, 7] [ng/mL] | Tmax [4, 7] [h] | CL/F [4, 7] [mL/min/kg] | MRT last [4, 7] [h] | MRT inf [4, 7] [h] | Vd/F [4, 7] [L/kg] | half-life [4, 7] [min] | Structure (SMILES) | also measured |
| --- | --- | --- | --- | --- | --- | --- | --- | --- | --- | --- | --- | --- | --- | --- | --- | --- | --- | --- | --- |
|  |  |  |  |  |  |  |  |  |  |  |  |  |  |  |  |  |  | CCOC(=O)C1=C(COCCN)NC(C)=C(C(=O)OC)C1c1ccccc1Cl (centres unmarked) [Amlodipine, amlodipine besylate] | IC50 at 30 min [1]: 17 µM; inhibition mechanism on vonoprazan metabolism ([2]; RLMs and HLMs, Lineweaver–Burk and Dixon plots): primarily competitive with some non-competitive inhibition; IC50 at 30 min [3]: 7.2 µM |
|  |  |  |  |  |  |  |  |  |  |  |  |  |  |  |  |  |  | COc1ccc([C@@H]2Sc3ccccc3N(CCN(C)C)C(=O)[C@@H]2OC(C)=O)cc1 [Diltiazem, diltiazem hydrochloride] | inhibition effect on vonoprazan in preliminary in vitro evaluation ([2]; RLMs, roughly 100 µM drug): slightly increased inhibition effects |
| 1.6 fold | 2580 ± 450 | 2550 ± 459 | 836 ± 176 | 1.58 ± 0.67 | 13.2 | 2.92 ± 0.19 | 2.25 ± 1.11 | 115 ± 45.6 | 1570 ± 189 | 1540 ± 175 | 766 ± 85.1 | 1 | 21.5 | 2.13 ± 0.14 | 2.44 ± 0.26 | 5.28 ± 2.5 | 175 ± 90.6 | O=C(O)c1cc(-c2ccccc2F)n(S(=O)(=O)c2cccnc2)c1 [MI, 5-(2-fluorophenyl)-1-(pyridin-3-ylsulfonyl)-1H-pyrrole-3-carboxylic acid] | fall of CLz/F [4, 5]: 38%; fall of Vz/F [4, 5]: 57%; increase of MRT (0-t) [4, 5]: 1.4 fold; increase of MRT (0-∞) [4, 5]: 1.2 fold; MRT inf [4, 6]: 3.11 ± 0.31 h |
| nearly twice | 59 ± 20.9 | 58.5 ± 21.1 | 19 ± 8.3 | 1.67 ± 0.52 | 614 | 2.93 ± 0.3 | 95.5 ± 51.3 | 104 ± 39 | 29.1 ± 5.31 | 28.8 ± 5.14 | 10.2 ± 1.88 | 0.75 ± 0.27 | 1180 | 2.72 ± 0.09 | 2.87 ± 0.17 | 190 ± 41.6 | 113 ± 22.2 | CNCc1cc(-c2ccccc2F)n(S(=O)(=O)c2cccnc2)c1 [Vonoprazan, vonoprazan] | MRT(0-∞) [4, 6]: 3.06 ± 0.38 h; decrease of CLz/F [4, 5]: approximately by half; decrease of Vz/F [4, 5]: approximately by half; increase of Cmax [4, 5]: nearly twice; increase of Tmax [4, 5]: nearly twice |
